Assay results published in article PMC7307906, “Macrocyclic Modalities Combining Peptide Epitopes and Natural Product Fragments” (Journal of the American Chemical Society, 2020).

Assays:
[1] = target: T1, human MC1R (Homo sapiens, UniProt Q01726); experiment: cAMP assay (LANCE) in T-Rex-293 cells expressing MC1R; format: cell-based; settings: for Emax: T-REx-293, read-out: % Effect hMC1R cAMP; for EC50: cAMP assay, mean (± SEM) of at least three independent experiments, read-out: EC50 hMC1R cAMP
T1 construct: expressed in transfected cells
T1 sequence (Q01726 whole entry): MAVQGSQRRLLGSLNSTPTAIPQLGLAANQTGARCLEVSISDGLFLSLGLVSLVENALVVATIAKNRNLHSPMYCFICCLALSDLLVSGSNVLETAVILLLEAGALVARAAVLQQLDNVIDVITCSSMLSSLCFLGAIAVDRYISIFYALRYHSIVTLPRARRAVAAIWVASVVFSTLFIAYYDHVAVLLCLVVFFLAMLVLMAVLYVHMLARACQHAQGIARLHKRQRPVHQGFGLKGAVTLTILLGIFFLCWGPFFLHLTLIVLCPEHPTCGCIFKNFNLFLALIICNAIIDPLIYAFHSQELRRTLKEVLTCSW

[2] = target: T2, human MC5R (Homo sapiens, UniProt P33032); experiment: Melanocortin receptor radioligand binding (SPA, [125I]-NDP-α-MSH displacement), MC5R; settings: for IC50: competitive binding, [125I]-NDP-α-MSH, mean (± SEM) of at least three independent experiments, read-out: IC50 hMC5R binding
T2 construct: expressed in transfected cells; host or cells: HEK293-6E suspension cells, transient expression; membranes
T2 sequence (P33032 whole entry): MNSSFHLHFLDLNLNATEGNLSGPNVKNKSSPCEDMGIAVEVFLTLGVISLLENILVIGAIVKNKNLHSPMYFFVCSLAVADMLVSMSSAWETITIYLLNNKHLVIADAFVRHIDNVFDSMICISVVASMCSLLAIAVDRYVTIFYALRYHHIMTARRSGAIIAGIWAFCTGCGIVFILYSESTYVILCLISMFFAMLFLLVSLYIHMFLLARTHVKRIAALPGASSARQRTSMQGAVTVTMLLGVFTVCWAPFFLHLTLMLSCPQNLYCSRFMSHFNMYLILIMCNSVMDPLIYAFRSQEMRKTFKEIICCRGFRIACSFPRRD

[3] = target: T1, human MC1R; experiment: Melanocortin receptor radioligand binding (SPA, [125I]-NDP-α-MSH displacement), MC1R; settings: competitive binding, mean (± SEM) of at least three independent experiments, read-out: IC50 hMC1R binding
[4] = target: T3, human MC3R (Homo sapiens, UniProt P41968); experiment: cAMP assay (LANCE) in T-Rex-293 cells expressing MC3R; format: cell-based; settings: cAMP assay; mean (± SEM) of at least three independent experiments; read-out: EC50 hMC3R cAMP
T3 construct: expressed in transfected cells
T3 sequence (P41968 whole entry): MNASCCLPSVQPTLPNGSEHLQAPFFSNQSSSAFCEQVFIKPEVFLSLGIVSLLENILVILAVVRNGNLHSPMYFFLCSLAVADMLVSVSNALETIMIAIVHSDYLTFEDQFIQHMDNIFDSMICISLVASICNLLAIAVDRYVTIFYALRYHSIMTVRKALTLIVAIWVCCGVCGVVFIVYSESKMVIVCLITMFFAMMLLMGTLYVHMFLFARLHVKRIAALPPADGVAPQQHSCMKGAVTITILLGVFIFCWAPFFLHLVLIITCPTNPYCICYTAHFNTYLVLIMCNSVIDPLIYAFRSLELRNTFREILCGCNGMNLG

[5] = target: T4, human MC4R (Homo sapiens, UniProt P32245); experiment: Melanocortin receptor radioligand binding (SPA, [125I]-NDP-α-MSH displacement), MC4R; settings: competitive binding, mean (± SEM) of at least three independent experiments, read-out: IC50 hMC4R binding
T4 construct: expressed in transfected cells
T4 sequence (P32245 whole entry): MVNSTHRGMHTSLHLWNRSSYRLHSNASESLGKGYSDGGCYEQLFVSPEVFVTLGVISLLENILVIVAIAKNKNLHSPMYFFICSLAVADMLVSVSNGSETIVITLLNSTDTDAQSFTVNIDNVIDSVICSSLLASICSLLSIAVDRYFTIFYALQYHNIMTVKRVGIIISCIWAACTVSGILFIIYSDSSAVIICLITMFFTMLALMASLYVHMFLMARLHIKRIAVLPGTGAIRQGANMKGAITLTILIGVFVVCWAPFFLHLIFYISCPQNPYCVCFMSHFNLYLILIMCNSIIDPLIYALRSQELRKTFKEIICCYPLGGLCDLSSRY

[6] = target: T3, human MC3R; experiment: Melanocortin receptor radioligand binding (SPA, [125I]-NDP-α-MSH displacement), MC3R; settings: competitive binding, mean (± SEM) of at least three independent experiments, read-out: IC50 hMC3R binding
[7] = target: T4, human MC4R; experiment: cAMP assay (LANCE) in T-Rex-293 cells expressing MC4R; format: cell-based; settings: cAMP assay; mean (± SEM) of at least three independent experiments; read-out: EC50 hMC4R cAMP

Compound | Emax [1] | EC50 [1] | IC50 [2] | IC50 [3] | EC50 [4] | IC50 [5] | IC50 [6] | EC50 [7] | selectivity for MC5R against MC1R ([2]; ratio of binding IC50, MC1R versus MC5R) | selectivity for MC5R against MC3R ([2]; ratio of binding IC50, MC3R versus MC5R) | selectivity for MC5R against MC4R ([2]; ratio of binding IC50, MC4R versus MC5R)
C[C@@H]1NC(=O)[C@H](CC(N)=O)NC(=O)[C@@H](Cc2ccccc2)NC(=O)[C@@H](Cc2ccccc2)NC(=O)[C@H](CCCNC(=N)N)NC(=O)[C@H](Cc2ccccc2)N(C)C(=O)[C@@H]2N[C@H](c3ccc(cc3)C(=O)NCCCC[C@@H](C(=O)N[C@@H](Cc3ccc(O)cc3)C(N)=O)NC(=O)[C@H](Cc3ccccc3)NC1=O)[C@@H]1C(=O)N(C)C(=O)[C@@H]12 [C1-major, [I-FRffNAFK ]Y] | 47% | 1.8 ± 0.3 µM | 13 ± 1 µM | 23 ± 1 µM | > 100 µM | 26 ± 2 µM | 36 ± 1 µM | > 100 µM | – | – | –
C[C@@H]1NC(=O)[C@H](CC(N)=O)NC(=O)[C@H](Cc2ccccc2)NC(=O)[C@H](Cc2ccccc2)NC(=O)[C@H](CCCNC(=N)N)NC(=O)[C@H](Cc2ccccc2)N(C)C(=O)[C@H]2N[C@@H](c3ccc(cc3)C(=O)NCCCC[C@@H](C(=O)N[C@@H](Cc3ccc(O)cc3)C(N)=O)NC1=O)[C@H]1C(=O)N(C)C(=O)[C@H]12 [F1-major*, [ I-FRFFNAK ]Y] | 31% | 14 ± 4 µM | 49 ± 2 µM | > 100 µM | > 100 µM | > 100 µM | > 100 µM | > 100 µM | – | – | –
C[C@@H]1NC(=O)[C@H](CC(N)=O)NC(=O)[C@H](Cc2ccccc2)NC(=O)[C@H](Cc2ccccc2)NC(=O)[C@H](CCCNC(=N)N)NC(=O)[C@H](Cc2ccccc2)N(C)C(=O)[C@@H]2N[C@H](c3ccc(cc3)C(=O)NCCCC[C@@H](C(=O)N[C@@H](Cc3ccc(O)cc3)C(N)=O)NC1=O)[C@@H]1C(=O)N(C)C(=O)[C@@H]12 [F1-minor*, [ I-FRFFNAK ]Y] | 36% | 10 ± 1 µM | 16 ± 1 µM | 65 ± 6 µM | > 100 µM | 57 ± 5 µM | 80 ± 5 µM | > 100 µM | – | – | –
C[C@@H]1NC(=O)[C@H](CC(N)=O)NC(=O)[C@H](Cc2ccccc2)NC(=O)[C@H](Cc2ccccc2)NC(=O)[C@H](CCCNC(=N)N)NC(=O)[C@H](Cc2ccccc2)N(C)C(=O)[C@H]2N[C@@H](c3ccc(cc3)C(=O)NCCCC[C@@H](C(=O)N[C@@H](Cc3ccc(O)cc3)C(N)=O)NC1=O)[C@H]1C(=O)N(c3ccccc3)C(=O)[C@H]12 [F2-minor, [ II-FRFFNAK ]Y] | 40% | 9.3 ± 3.6 µM | 6.5 ± 0.9 µM | 81 ± 3 µM | > 100 µM | 91 ± 5 µM | 85 ± 6 µM | > 100 µM | – | – | –
C[C@@H]1NC(=O)[C@H](CC(N)=O)NC(=O)[C@@H](Cc2ccccc2)NC(=O)[C@@H](Cc2ccccc2)NC(=O)[C@H](CCCNC(=N)N)NC(=O)[C@H](Cc2ccccc2)N(C)C(=O)[C@@H]2N[C@H](c3ccc(cc3)C(=O)NCCCC[C@@H](C(=O)N[C@@H](Cc3ccc(O)cc3)C(N)=O)NC1=O)[C@@H]1C(=O)N(C)C(=O)[C@@H]12 [G1-major, [I-FRffNAK ]Y] | 38% | 1.8 ± 0.3 µM | > 10 µM | > 10 µM | > 10 µM | > 10 µM | > 10 µM | > 10 µM | – | – | –
CN1C(=O)[C@@H]2[C@H](C1=O)[C@H]1N[C@@H]2c2ccc(cc2)C(=O)NCCCC[C@@H](C(=O)N[C@@H](Cc2ccc(O)cc2)C(N)=O)NC(=O)[C@H](CC(N)=O)NC(=O)[C@H](Cc2ccccc2)NC(=O)[C@H](Cc2ccccc2)NC(=O)[C@H](CCCNC(=N)N)NC(=O)[C@H](Cc2ccccc2)N(C)C1=O [J1-major, [ I-FRFFNK ]Y] | 51% | 17 ± 5 µM | 41 ± 9 µM | > 100 µM | > 100 µM | > 100 µM | > 100 µM | > 100 µM | – | – | –

The next lines start with the values.

Emax [1] | EC50 [1] | IC50 [2] | IC50 [3] | EC50 [4] | IC50 [5] | IC50 [6] | EC50 [7] | selectivity for MC5R against MC1R ([2]; ratio of binding IC50, MC1R versus MC5R) | selectivity for MC5R against MC3R ([2]; ratio of binding IC50, MC3R versus MC5R) | selectivity for MC5R against MC4R ([2]; ratio of binding IC50, MC4R versus MC5R) | Compound
39% | 10 ± 2 µM | 31 ± 0.4 µM | > 100 µM | > 100 µM | 96 ± 4 µM | > 100 µM | > 100 µM | – | – | – | C[C@@H]1NC(=O)[C@H](CC(N)=O)NC(=O)[C@H](Cc2ccccc2)NC(=O)[C@H](Cc2ccccc2)NC(=O)[C@H](CCCNC(=N)N)NC(=O)[C@H](Cc2ccccc2)N(C)C(=O)[C@H]2N[C@@H](c3ccc(cc3)C(=O)NCCCC[C@@H](C(=O)NCC(N)=O)NC(=O)[C@H](Cc3ccccc3)NC1=O)[C@H]1C(=O)N(C)C(=O)[C@H]12 [B2-minor, [ I-FRFFNAFK ]G]
– | > 10 µM | > 10 µM | > 10 µM | > 10 µM | > 10 µM | > 10 µM | > 10 µM | – | – | – | C[C@@H]1NC(=O)[C@H](CC(N)=O)NC(=O)[C@H](Cc2ccccc2)NC(=O)[C@H](Cc2ccccc2)NC(=O)[C@H](CCCNC(=N)N)NC(=O)[C@H](Cc2ccccc2)N(C)C(=O)[C@H]2N[C@@H](c3ccc(cc3)C(=O)NCCCC[C@@H](C(=O)NCC(N)=O)NC(=O)[C@H](Cc3ccccc3)NC1=O)[C@H]1C(=O)N(c3ccccc3)C(=O)[C@H]12 [B3-major*, [ II-FRFFNAFK]G]
56% | 2.2 ± 1 µM | 36 ± 3 µM | 88 ± 1 µM | > 100 µM | 72 ± 4 µM | > 100 µM | > 100 µM | – | – | – | C[C@@H]1NC(=O)[C@H](CC(N)=O)NC(=O)[C@@H](Cc2ccccc2)NC(=O)[C@@H](Cc2ccccc2)NC(=O)[C@H](CCCNC(=N)N)NC(=O)[C@H](Cc2ccccc2)N(C)C(=O)[C@@H]2N[C@H](c3ccc(cc3)C(=O)NCCCC[C@@H](C(=O)NCC(N)=O)NC(=O)[C@H](Cc3ccccc3)NC1=O)[C@@H]1C(=O)N(C)C(=O)[C@@H]12 [C4-major, [I-FRffNAFK ]G]
46% | 6.4 ± 0.3 µM | 11 ± 1 µM | 32 ± 1 µM | > 100 µM | 38 ± 6 µM | 39 ± 2 µM | > 100 µM | – | – | – | CN1C(=O)[C@H]2N[C@@H](c3ccc(cc3)C(=O)NCCCC[C@@H](C(=O)N[C@@H](Cc3ccc(O)cc3)C(N)=O)NC(=O)[C@H](CC(N)=O)NC(=O)[C@H](Cc3ccccc3)NC(=O)[C@H](Cc3ccccc3)NC(=O)[C@H](CCCNC(=N)N)NC(=O)[C@@H]1Cc1ccccc1)[C@H]1C(=O)N(c3ccccc3)C(=O)[C@H]12 [J2-major, [ II-FRFFNK ]Y]
63% | 14 ± 5 µM | 54 ± 6 µM | 78 ± 2 µM | > 100 µM | > 100 µM | > 100 µM | > 100 µM | – | – | – | CN1C(=O)[C@H]2N[C@@H](c3ccc(cc3)C(=O)NCCCC[C@@H](C(=O)NCC(N)=O)NC(=O)[C@H](CC(N)=O)NC(=O)[C@H](Cc3ccccc3)NC(=O)[C@H](Cc3ccccc3)NC(=O)[C@H](CCCNC(=N)N)NC(=O)[C@@H]1Cc1ccccc1)[C@H]1C(=O)N(c3ccccc3)C(=O)[C@H]12 [J3-major*, [ II-FRFFNK ]G]
– | > 100 µM | 6.2 ± 0.5 µM | 13 ± 1 µM | > 100 µM | 17 ± 2 µM | 21 ± 1 µM | > 100 µM | – | – | – | CN1C(=O)[C@@H]2N[C@H](c3ccc(cc3)C(=O)NCCCC[C@@H](C(=O)NCC(N)=O)NC(=O)[C@H](CC(N)=O)NC(=O)[C@H](Cc3ccccc3)NC(=O)[C@H](Cc3ccccc3)NC(=O)[C@H](CCCNC(=N)N)NC(=O)[C@@H]1Cc1ccccc1)[C@@H]1C(=O)N(c3ccccc3)C(=O)[C@@H]12 [J3-minor*, [ II-FRFFNK ]G]
47% | 4.1 ± 0.4 µM | 4.1 µM | 31 ± 3 µM | > 100 µM | 54 ± 4 µM | 19 ± 3 µM | > 100 µM | 7 fold | 5 fold | 13 fold | CN1C(=O)[C@@H]2N[C@H](c3ccc(cc3)C(=O)NCCCC[C@@H](C(=O)N[C@@H](Cc3ccc(O)cc3)C(N)=O)NC(=O)[C@H](CC(N)=O)NC(=O)[C@@H](Cc3ccccc3)NC(=O)[C@@H](Cc3ccccc3)NC(=O)[C@H](CCCNC(=N)N)NC(=O)[C@@H]1Cc1ccccc1)[C@@H]1C(=O)N(c3ccccc3)C(=O)[C@@H]12 [K1-major, [II-FRffNK ]Y]
– | > 10 µM | > 10 µM | > 10 µM | > 10 µM | > 10 µM | > 10 µM | > 10 µM | – | – | – | CN1C(=O)[C@@H]2[C@H](C1=O)[C@H]1N[C@@H]2C(=O)N(C)[C@@H](Cc2ccccc2)C(=O)N[C@@H](CCCNC(=N)N)C(=O)N[C@H](Cc2ccccc2)C(=O)N[C@H](Cc2ccccc2)C(=O)N[C@@H](CC(N)=O)C(=O)N[C@H](C(=O)NCC(N)=O)CCCCNC(=O)c2ccc1cc2 [K2-minor, [I-FRffNK ]G]
42% | > 10 µM | 4.2 ± 0.1 µM | > 10 µM | > 10 µM | > 10 µM | > 10 µM | > 10 µM | – | – | – | CN1C(=O)[C@@H]2N[C@H](c3ccc(cc3)C(=O)NCCCC[C@@H](C(=O)NCC(N)=O)NC(=O)[C@H](CC(N)=O)NC(=O)[C@@H](Cc3ccccc3)NC(=O)[C@@H](Cc3ccccc3)NC(=O)[C@H](CCCNC(=N)N)NC(=O)[C@@H]1Cc1ccccc1)[C@@H]1C(=O)N(c3ccccc3)C(=O)[C@@H]12 [K3-major, [II-FRffNK ]G]
